Experimental data from patent publication US20240325378A1, “PERGOLIDE TREATMENT OF OCULAR CHEMICAL INJURY” (University of Oregon, priority 2023, published 2024).

B1: NGF: Recombinant mouse NGF (R&D Systems) dissolved in 1× PBS, 100 μg/ml eye drops; positive control (protein, UniProt P01139 122-241, looked up)
Beta-nerve growth factor: SSTHPVFHMGEFSVCDSVSVWVGDKTTATDIKGKEVTVLAEVNINNSVFRQYFFETKCRASNPVESGCRGIDSKHWNSYCTTTHTFVKALTTDEKQAAWRFIRIDTACVCVLSRKATRRG

What was measured:
[1] = test system: C57BL/6J mice with alkali corneal injury; assay: Corneal haze grading (Roper-Hall classification) after corneal alkali injury; assay type: in vivo, mouse; settings: 3 weeks post injury; medium dose 300 μg/ml; grade 0-4; naïve group 3.3±0.8
Protocol: (§1) Mice were separated into 7 treatment groups with 10 mice per group (5 male, 5 female); high dose pergolide (600 μg/ml), medium dose pergolide (300 μg/ml), low dose pergolide (50 μg/ml), vehicle (solution only), NGF (100 μg/ml), naïve (injury and no treatment), and normal (no injury and no treatment). Preparation of pergolide and vehicle groups were done with Marinosolv® (Marinomed, Hovengasse, Korneuburg, AT) as described in (Siegl 2019 and Zhang 2020). Recombinant mouse NGF (R&D Systems, Minneapolis, MN, US) was prepared by dissolution in 1× phosphate-buffered saline (PBS). Both solutions were stored at 4 C according to the manufacturer's guidelines.
Mice were confirmed to have normal corneas prior to starting the study. Alkali corneal injury was done on one eye of each mouse for all groups excluding the normal group, in accordance with an established mouse model (Cho J 2019). Alkali-based injury was chosen as it is one of the most common chemical injuries to the eye (Dua 2020). […] A 2 mm diameter filter paper disc was soaked in sodium hydroxide (0.75 M) then applied centrally on the cornea for 10 seconds. The disc was then removed and the ocular surface immediately irrigated with 10 ml of balanced sodium salts. […] Mice were placed on a water heating pad, monitored until fully awake, then returned to their cage. […]

[2] = test system: C57BL/6J mice with alkali corneal injury; assay: Wiping test (ocular pain behavior) after corneal alkali injury; assay type: in vivo, mouse; settings: females; for wiping (eye wipes, week minus baseline): week 2 post-injury, heightened vs week 1
Protocol: Seventy (35 male, 35 female) C57BL/6J mice (The Jackson Laboratory, Maine, US) were utilized (FIG. 1A). Mice were kept in a 12 hour light/12 hour dark cycle in groups of 5 with food and water ad libitum. Differences between males and females were assessed.
as §1
(§2) Mice were confirmed to have normal corneas prior to starting the study. Alkali corneal injury was done on one eye of each mouse for all groups excluding the normal group, in accordance with an established mouse model (Cho J 2019). Alkali-based injury was chosen as it is one of the most common chemical injuries to the eye (Dua 2020). […] A 2 mm diameter filter paper disc was soaked in sodium hydroxide (0.75 M) then applied centrally on the cornea for 10 seconds. The disc was then removed and the ocular surface immediately irrigated with 10 ml of balanced sodium salts. The corneal surface was then lightly rubbed with the smooth side of forceps and irrigated in the same manner. None of the mice had eyelid or conjunctiva involvement of the injury. Erythromycin ointment (Perrigo, Dublin, IE) was then applied to the exterior of both eyes. Mice were placed on a water heating pad, monitored until fully awake, then returned to their cage.
All groups except the no treatment groups received their respective eye drops (10 μl per eye drop) three times daily (5 out of 7 days each week) in the injured eye for 3 weeks following injury. Mice were held for 10 seconds with the eye drop on their eye before being returned to their cage. Mice were sacrificed by cervical dislocation after week 3.
Wiping test was chosen to assess ocular pain behavior and was done once weekly (at the same time), in accordance with previously established protocols (N=10; 5 male, 5 female) (Tashiro et al. 2010, Cho J et al. 2019). Testing was performed in a clear open-top cylinder surrounded by 2 mirrors and a video recorder in front of the cylinder. Mice were habituated to the cylinder prior to the start of the study. The test consisted of applying 10 μl of sodium chloride (2 M) to the surface of the study cornea for 10 seconds, blotting excess away, then recording the mouse in the cylinder for 30 seconds. […] A different pipette tip was used for each mouse. Sudden movements and loud noises were avoided during testing so as to not distract the subjects. An eye wipe was defined as a purposeful wipe by the ipsilateral forelimb across the eye or resulting in eye closure. Cage changes were not done within 3 days of each test, and when cage changes occurred it happened for each group simultaneously. Eye wiping was assessed at baseline (3 days prior to injury) and on post-injury weeks 1, 2, and 3.

[3] = test system: C57BL/6J mice with alkali corneal injury; assay: Limbal nerve density (β-tubulin III stained flat-mounts); assay type: in vivo, mouse; settings: 3 weeks post injury, normal control 0.37±0.09
Protocol: as §1
as §2, with “cage. […]” for “cage.”
(§3) Flat-mounts of mouse corneas were prepared and corneal nerve density was analyzed as previously described (N=6; 3 male, 3 female) (Zhang 2020) (FIG. 3A). […]
(§4) EVOS fluorescence microscope (Life Technologies, Carlsbad, CA, US) was used to create reconstructed whole-mount images and take images at the basal epithelial level in the central area of the injury. […]

[4] = Change in mouse weight, baseline to 3 weeks post-injury; assay type: in vivo; settings: medium dose 300 μg/ml group
Protocol: (§5) Change in mouse weight was compared from baseline to 3 weeks post-injury, and weight in the pergolide groups was compared to the non-pergolide groups (N=10; 5 male, 5 female). Following euthanasia, the heart and eyes were removed from the high dose pergolide and vehicle groups and histopathology was assessed using previously described protocols.

[5] = test system: C57BL/6J mice with alkali corneal injury; assay: Central corneal nerve density (β-tubulin III stained flat-mounts); assay type: in vivo, mouse; settings: 3 weeks post injury; low dose 50 μg/ml; normal control 0.43±0.05
Protocol: as §1
Mice were confirmed to have normal corneas prior to starting the study. Alkali corneal injury was done on one eye of each mouse for all groups excluding the normal group, in accordance with an established mouse model (Cho J 2019). […] Mice were placed on a water heating pad, monitored until fully awake, then returned to their cage. […]
as §3, §4

C57BL/6J mice = assay: Histopathology of heart, retina, liver and kidney after topical treatment; assay type: in vivo, mouse; settings: high, medium, and low dose topical eye drops for 3 weeks
Protocol: as §5
In brief, after excision, hearts, livers, and kidneys were fixed in formalin for 24 hours then embedded in paraffin and cut in the coronal and transverse planes (N=4; 2 male, 2 female) (Droogmans 2007 & 2009). Eyes were fixed in Davidson's solution for 24 hours then placed in 70% ethanol and processed prior then embedded in paraffin and cut in the sagittal plane (N=4; 2 male, 2 female) (Chidlow 2011). Hematoxylin and eosin were used to stain the slides (Cardiff 2014), then the EVOS fluorescence microscope was used to capture images.

[6] = medium dose 300 μg/ml eye drops

retina, liver and kidney morphology (C57BL/6J mice) | Molecule | corneal haze grade [1] | wiping (eye wipes, week minus baseline) ([2]; high dose 600 μg/ml eye drops) | wiping (eye wipes, week minus baseline) [2, 6] | wiping at week 3 compared to week 2 ([2]; high dose 600 μg/ml eye drops) | wiping at week 3 compared to week 2 [2, 6] | limbal nerve density ([3]; high dose 600 μg/ml) | limbal nerve density ([3]; medium dose 300 μg/ml) | minor weight loss of one mouse, of initial body weight [4] | central corneal nerve density (proportion of area with β-tubulin III staining) [5] | heart histopathology (C57BL/6J mice; compared to the vehicle group) | wiping (eye wipes, week minus baseline) ([2]; 100 μg/ml eye drops) | wiping at week 3 compared to week 2 ([2]; 100 μg/ml eye drops) | limbal nerve density ([3]; 100 μg/ml)
did not show abnormal morphology | CCCN1C[C@H](CSC)C[C@@H]2c3cccc4[nH]cc(c34)C[C@H]21 [pergolide] | 2.2±1.1 | 7.0±5.8 wipes | 6.2±5.5 wipes | decreased | decreased | 0.35±0.11 | 0.34±0.08 | about 1% | 0.10±0.03 | did not show presence of valvular fibrosis, glycosaminoglycans deposits/myxoid changes, chondroid metaplasia, or other abnormal pathology |  |  | 
 | B1 |  |  |  |  |  |  |  |  |  |  | 4.6±5.1 wipes | decreased | 0.36±0.08
